Source: patent US12077503B2, “Substituted cyclic amides and their use as herbicides” (FMC CORPORATION, priority 2015, dated 2024)
Where two headings read alike, the source gives them in different places.

Assays:
Assay type in all cases: in vivo
[1] = test system: Kochia (Kochia scoparia); assay: Test A preemergence; conditions: Bassia scoparia, pre-emergence, 240 h; for pest or weed control at 125 g/ha: 125 g ai/ha, Preemergence, visual injury rating after approximately 10 d, read-out: Kochia plant response rating (0 to 100 scale, 0 is no effect, 100 is complete control); for pest or weed control at 500 g/ha: 500 g ai/ha, preemergence, visual injury rating about 10 d after treatment, 0 to 100 scale (0 no effect, 100 complete control), read-out: Kochia plant response rating
Summary of the method: (§1)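 Compounds were formulated in a non-phytotoxic solvent mixture with surfactant and applied as a preemergence directed soil spray after seeding, or sprayed postemergence over plants 2 to 10 cm tall at the one- to two-leaf stage. Evaluation after about 10 d compared treated with untreated controls, using a scale from 0 (no effect) to 100 (complete control).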

[2] = test system: barnyardgrass (Echinochloa crus-galli); assay: Test A preemergence; conditions: Echinochloa crus-galli, pre-emergence, 240 h; for pest or weed control at 125 g/ha: 125 g ai/ha, Preemergence, visual injury rating after approximately 10 d, read-out: Barnyardgrass plant response rating (0 to 100 scale, 0 is no effect, 100 is complete control); for pest or weed control at 500 g/ha: 500 g ai/ha, preemergence, visual injury rating about 10 d after treatment, 0 to 100 scale (0 no effect, 100 complete control), read-out: Barnyardgrass plant response rating
Summary of the method: as §1

[3] = test system: giant foxtail (Setaria faberii); assay: Test A preemergence; conditions: Setaria faberi, pre-emergence, 240 h; for pest or weed control at 125 g/ha: 125 g ai/ha, Preemergence, visual injury rating after approximately 10 d, read-out: Foxtail, Giant plant response rating (0 to 100 scale, 0 is no effect, 100 is complete control); for pest or weed control at 500 g/ha: 500 g ai/ha, preemergence, visual injury rating about 10 d after treatment, 0 to 100 scale (0 no effect, 100 complete control), read-out: Foxtail, Giant plant response rating
Summary of the method: as §1

[4] = test system: pigweed (Amaranthus retroflexus); assay: Test A preemergence; conditions: Amaranthus retroflexus, pre-emergence, 240 h; for pest or weed control at 125 g/ha: 125 g ai/ha, Preemergence, visual injury rating after approximately 10 d, read-out: Pigweed plant response rating (0 to 100 scale, 0 is no effect, 100 is complete control); for pest or weed control at 500 g/ha: 500 g ai/ha, preemergence, visual injury rating about 10 d after treatment, 0 to 100 scale (0 no effect, 100 complete control), read-out: Pigweed plant response rating
[5] = test system: ragweed (common ragweed, Ambrosia elatior); assay: Test A preemergence; conditions: Ambrosia artemisiifolia, pre-emergence, 240 h; for pest or weed control at 125 g/ha: 125 g ai/ha, Preemergence, visual injury rating after approximately 10 d, read-out: Ragweed plant response rating (0 to 100 scale, 0 is no effect, 100 is complete control); for pest or weed control at 500 g/ha: 500 g ai/ha, preemergence, visual injury rating about 10 d after treatment, 0 to 100 scale (0 no effect, 100 complete control), read-out: Ragweed plant response rating
Summary of the method: as §1

[6] = test system: ryegrass, Italian (Italian ryegrass, Lolium multiflorum); assay: Test A preemergence; conditions: Lolium multiflorum, pre-emergence, 240 h; for pest or weed control at 125 g/ha: 125 g ai/ha, Preemergence, visual injury rating after approximately 10 d, read-out: Ryegrass, Italian plant response rating (0 to 100 scale, 0 is no effect, 100 is complete control); for pest or weed control at 500 g/ha: 500 g ai/ha, preemergence, visual injury rating about 10 d after treatment, 0 to 100 scale (0 no effect, 100 complete control), read-out: Ryegrass, Italian plant response rating
Summary of the method: as §1

[7] = test system: Kochia (Kochia scoparia); assay: Test A postemergence; conditions: Bassia scoparia, post-emergence, 240 h, postemergence, approx. 10 d; for pest or weed control at 125 g/ha: 125 g ai/ha, visual injury on 0 to 100 scale (0 no effect, 100 complete control), read-out: Kochia plant response rating; for pest or weed control at 500 g/ha: 500 g ai/ha, visual injury, 0 to 100 scale (0 no effect, 100 complete control), read-out: Plant response rating, Kochia
Summary of the method: as §1

[8] = test system: barnyardgrass (Echinochloa crus-galli); assay: Test A postemergence; conditions: Echinochloa crus-galli, post-emergence, 240 h; for pest or weed control at 125 g/ha: 125 g ai/ha; for pest or weed control at 500 g/ha: 500 g ai/ha, visual injury, 0 to 100 scale (0 no effect, 100 complete control)
Summary of the method: as §1

[9] = test system: blackgrass (Alopecurus myosuroides); assay: Test A postemergence; conditions: Alopecurus myosuroides, post-emergence, 240 h; for pest or weed control at 125 g/ha: 125 g ai/ha; for pest or weed control at 500 g/ha: 500 g ai/ha, visual injury, 0 to 100 scale (0 no effect, 100 complete control)
Summary of the method: as §1

[10] = test system: pigweed (Amaranthus retroflexus); assay: Test A postemergence; conditions: Amaranthus retroflexus, post-emergence, 240 h, postemergence, approx. 10 d; for pest or weed control at 125 g/ha: 125 g ai/ha, visual injury on 0 to 100 scale (0 no effect, 100 complete control), read-out: Pigweed plant response rating; for pest or weed control at 500 g/ha: 500 g ai/ha, visual injury, 0 to 100 scale (0 no effect, 100 complete control), read-out: Plant response rating, Pigweed
Summary of the method: as §1

[11] = test system: barnyardgrass (Echinochloa crus-galli); assay: Test B flooded paddy test; conditions: Echinochloa crus-galli, 250 g ai/ha, Flood; 0 to 100 scale where 0 is no effect and 100 is complete control; read-out: Barnyardgrass plant response rating
Summary of the method: (§2)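 Greenhouse paddy pots with 2-leaf stage plants received compound by direct addition to floodwater 3 cm deep, kept at that level. Scored visually at 13–15 d versus controls (0 no effect; 100 complete control).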

[12] = test system: ducksalad (Heteranthera limosa); assay: Test B flooded paddy test; conditions: Heteranthera limosa, 250 g ai/ha, Flood; 0 to 100 scale where 0 is no effect and 100 is complete control; read-out: Ducksalad plant response rating
Summary of the method: as §2

[13] = test system: rice (Oryra sativa); assay: Test B flooded paddy test; conditions: Oryza sativa, 250 g ai/ha, Flood; 0 to 100 scale where 0 is no effect and 100 is complete control; read-out: Rice plant response rating
Summary of the method: as §2

[14] = test system: sedge, umbrella (small-flower umbrella sedge, Cyperus difformis); assay: Test B flooded paddy test; conditions: Cyperus difformis, 250 g ai/ha, Flood; 0 to 100 scale where 0 is no effect and 100 is complete control; read-out: Sedge, Umbrella plant response rating
Summary of the method: as §2

[15] = Postemergence, visual injury after approximately 10 d, 0 to 100 scale where 0 is no effect and 100 is complete control, read-out: Plant response rating, Barnyardgrass
[16] = postemergence, approx. 10 d, read-out: Plant response rating, Barnyardgrass
[17] = Postemergence, visual injury after approximately 10 d, 0 to 100 scale where 0 is no effect and 100 is complete control, read-out: Plant response rating, Blackgrass
[18] = postemergence, approx. 10 d, read-out: Plant response rating, Blackgrass

| Structure (SMILES) | pest or weed control at 125 g/ha [1] [%] | pest or weed control at 500 g/ha [1] [%] | pest or weed control at 125 g/ha [2] [%] | pest or weed control at 500 g/ha [2] [%] | pest or weed control at 125 g/ha [3] [%] | pest or weed control at 500 g/ha [3] [%] | pest or weed control at 125 g/ha [4] [%] | pest or weed control at 500 g/ha [4] [%] | pest or weed control at 125 g/ha [5] [%] | pest or weed control at 500 g/ha [5] [%] | pest or weed control at 125 g/ha [6] [%] | pest or weed control at 500 g/ha [6] [%] | pest or weed control at 125 g/ha [7] [%] | pest or weed control at 500 g/ha [8, 16] [%] | pest or weed control at 500 g/ha [9, 18] [%] | pest or weed control at 125 g/ha [10] [%] | pest or weed control at 250 g/ha [11] [%] | pest or weed control at 250 g/ha [12] [%] | pest or weed control at 250 g/ha [13] [%] | pest or weed control at 250 g/ha [14] [%] | also measured |
| --- | --- | --- | --- | --- | --- | --- | --- | --- | --- | --- | --- | --- | --- | --- | --- | --- | --- | --- | --- | --- | --- |
| Cc1ccc([C@H]2CNC(=O)[C@@H]2C(=O)Nc2ccccc2F)cc1C [Compound 1033] | 0 | 60 | 90 | 90 | 70 | 90 | 0 | 0 | 0 | 10 | 0 | 50 | 0 | 90 | 40 | 0 | 50 | 100 | 0 | 0 | pest or weed control at 500 g/ha [7]: 0%; pest or weed control at 125 g/ha [8, 15]: 90%; pest or weed control at 125 g/ha [9, 17]: 0%; pest or weed control at 500 g/ha [10]: 0% |
| Cc1ccc([C@H]2CNC(=O)[C@@H]2C(=O)Nc2cccc(F)c2C)cc1C [Compound 1035] | 0 | 50 | 90 | 90 | 90 | 90 | 0 | 0 | 20 | 70 | – | 70 | 0 | 90 | 60 | 0 | 50 | 100 | 0 | 0 | pest or weed control at 500 g/ha [7]: 20%; pest or weed control at 125 g/ha [8, 15]: 90%; pest or weed control at 125 g/ha [9, 17]: 40%; pest or weed control at 500 g/ha [10]: 0% |
| Cc1cc([C@H]2CNC(=O)[C@@H]2C(=O)Nc2cccc(F)c2F)ccc1C(F)(F)F [Compound 1040] | 50 | 80 | 90 | 90 | 90 | 90 | 30 | 40 | – | 80 | 50 | 50 | 60 | 90 | 70 | 40 | 60 | 75 | 0 | 0 | pest or weed control at 500 g/ha [7]: 70%; pest or weed control at 125 g/ha [8, 15]: 80%; pest or weed control at 125 g/ha [9, 17]: 60% |
| Cc1cc([C@H]2CNC(=O)[C@@H]2C(=O)Nc2ccccc2S(C)(=O)=O)ccc1C(F)(F)F [Compound 1041] | 30 | – | 30 | 60 | 80 | 90 | 0 | 20 | 20 | – | 0 | 0 | 0 | 50 | 40 | 0 | 0 | 100 | 0 | 0 | pest or weed control at 125 g/ha ([8]; postemergence, visual injury on 0 to 100 scale (0 no effect, 100 complete control), approx. 10 d, read-out: Barnyardgrass plant response rating): 0%; pest or weed control at 125 g/ha ([9]; postemergence, visual injury on 0 to 100 scale (0 no effect, 100 complete control), approx. 10 d, read-out: Blackgrass plant response rating): 0% |
